According to ChEMBL document CHEMBL3879900, “aSMase inhibitors” (2012):
Active and inactive are the calls of the source. The rule behind the calls is not given here.

Target: T1, Sphingomyelin phosphodiesterase (Homo sapiens) (UniProt P17405)
T1 sequence (whole entry): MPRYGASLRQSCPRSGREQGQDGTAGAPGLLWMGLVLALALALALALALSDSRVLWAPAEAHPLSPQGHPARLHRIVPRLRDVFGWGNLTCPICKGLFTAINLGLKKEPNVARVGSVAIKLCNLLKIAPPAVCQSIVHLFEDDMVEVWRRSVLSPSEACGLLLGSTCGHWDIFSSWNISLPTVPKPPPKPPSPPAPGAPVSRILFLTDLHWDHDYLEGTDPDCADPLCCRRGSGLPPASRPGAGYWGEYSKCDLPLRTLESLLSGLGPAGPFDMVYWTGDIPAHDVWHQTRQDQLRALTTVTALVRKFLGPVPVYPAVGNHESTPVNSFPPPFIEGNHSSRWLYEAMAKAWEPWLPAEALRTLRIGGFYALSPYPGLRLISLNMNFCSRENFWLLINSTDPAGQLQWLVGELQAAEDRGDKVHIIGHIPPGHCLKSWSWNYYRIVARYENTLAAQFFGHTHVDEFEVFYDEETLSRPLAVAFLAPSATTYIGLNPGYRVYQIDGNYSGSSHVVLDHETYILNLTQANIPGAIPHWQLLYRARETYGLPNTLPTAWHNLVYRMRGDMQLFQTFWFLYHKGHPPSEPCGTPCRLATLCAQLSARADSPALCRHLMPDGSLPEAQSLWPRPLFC
Experiment: Inhibition of recombinant human acid sphingomyelinase expressed in HEKfreestyle293 cells using bodipy-C12 sphingomyelin as substrate and nanomolar to low micromolar concentration of compound after 1 hr by fluorescence assay

| SMILES | inhibition |
| --- | --- |
| CCCCCCCCOc1ccc(-c2ccc(C(=O)Nc3cccc(P(=O)(O)O)c3)cc2)cc1 | Active |
| O=C(Nc1ccccc1CP(=O)(O)O)C12CC3CC(C1)CC(c1ccccc1)(C3)C2 | Active |
| CCCCCCCCOc1ccc(-c2ccc(C(=O)Nc3ccc(C(F)(F)P(=O)(OCC)OCC)cc3)cc2)cc1 | Active |
| COc1ccc(-c2ccc(C(=O)Nc3ccccc3CP(=O)(O)O)cc2)cc1 | Active |
| CCCCCCCCOc1ccc(-c2ccc(C(=O)N(C)c3ccc(C(F)(F)P(=O)(O)O)cc3)cc2)cc1 | Active |
| CCCCOc1ccc(-c2ccc(C(=O)Nc3ccccc3CP(=O)(O)O)cc2)cc1 | Active |
| CCCCCCCCOc1ccc(-c2ccc(C(=O)N(C)c3cccc(C(F)(F)P(=O)(O)OCC)c3)cc2)cc1 | Active |
| CCCCCCCCOc1ccc(-c2ccc(C(=O)Nc3ccccc3C(F)(F)P(=O)(OCC)OCC)cc2)cc1 | Active |
| CCCCCCCCCCOc1ccc(-c2ccc(C(=O)Nc3ccccc3P(=O)(OCC)OCC)cc2)cc1 | Active |
| CCCCCCCCOc1ccc(-c2ccc(C(=O)N(C)c3ccc(C(F)(F)P(=O)(OC)OCC)cc3)cc2)cc1 (stereo not drawn) | Active |
| CCCCCCCCOc1ccc(-c2ccc(C(=O)N(C)c3cccc(C(F)(F)P(=O)(OC)OCC)c3)cc2)cc1 (stereo not drawn) | Active |
| CCCCCCCCOc1ccc(-c2ccc(C(=O)Nc3ccccc3P(=O)(OCC)OCC)cc2)cc1 | Active |
| CCCCCCCCOc1ccc(-c2ccc(C(=O)Nc3ccccc3C(F)(F)C(F)(F)P(=O)(OCC)OCC)cc2)cc1 | Active |
| CCCCCCCCOc1ccc(-c2ccc(C(=O)Nc3ccccc3P(=O)(O)OCOC(=O)C(C)(C)C)cc2)cc1 | Active |
| CCCCCCCCOc1ccc(-c2ccc(C(=O)Nc3cccc(CP(=O)(O)O)c3)cc2)cc1 | Active |
| CCCCCCCCOc1ccc(-c2ccc(C(=O)N(C)c3ccccc3C(F)(F)P(=O)(O)O)cc2)cc1 | Active |
| CCCCCCCCOc1ccc(-c2ccc(C(=O)Nc3ccc(CP(=O)(O)O)cc3)cc2)cc1 | Active |
| CCCCCCCCOc1ccc(-c2ccc(C(=O)Nc3ccc(CCP(=O)(O)O)cc3)cc2)cc1 | Active |
| CCCCCCc1ccc(-c2ccc(C(=O)Nc3ccccc3CP(=O)(O)O)cc2)cc1 | Active |
| CCCCCCCCOc1ccc(-c2ccc(C(=O)Nc3ccccc3C(F)(F)P(=O)(O)O)cc2)cc1 | Active |
| CCCCCCCCOc1ccc(-c2ccc(C(=O)N(CC)c3cccc(C(F)(F)P(=O)(OCC)OCC)c3)cc2)cc1 | Active |

| SMILES | inhibition |
| --- | --- |
| CCCCCCCCOc1ccc(-c2ccc(C(=O)Nc3ccccc3P(=O)(O)O)cc2)cc1 | Active |
| CCCCCCCCOc1ccc(-c2ccc(C(=O)Nc3cccc(CP(=O)(O)OCC)c3)cc2)cc1 | Active |
| CCCCCCCCOc1ccc(-c2ccc(C(=O)Nc3ccc(P(=O)(OCC)OCC)cc3)cc2)cc1 | Active |
| O=C(Nc1ccccc1CP(=O)(O)O)c1ccc(-c2ccc(OCc3ccccc3)cc2)cc1 | Active |
| CCCCCCCCOc1ccc(-c2ccc(C(=O)Nc3ccc(P(=O)(O)OCC)cc3)cc2)cc1 | Active |
| CCCCCCCCOc1ccc(-c2ccc(C(=O)Nc3cccc(C(F)(F)P(=O)(O)OCC)c3)cc2)cc1 | Active |
| CCCCCCc1ccc(-c2ccc(C(=O)Nc3ccccc3CP(=O)([O-])OCC[N+](C)(C)C)cc2)cc1 | Active |
| CCCCCCCCOc1ccc(-c2ccc(C(=O)Nc3cccc(CP(=O)(OCC)OCC)c3)cc2)cc1 | Active |
| CCCCCCCCOc1ccc(-c2ccc(C(=O)Nc3ccccc3C(F)(F)C(F)(F)P(=O)(O)O)cc2)cc1 | Active |
| O=C(Nc1ccccc1CP(=O)(O)O)c1ccc(-c2ccccc2)cc1 | Active |
| CCCCCCCCOc1ccc(-c2ccc(C(=O)Nc3cccc(C(F)(F)P(=O)(O)O)c3)cc2)cc1 | Active |
| CCCCCCCOc1ccc(-c2ccc(C(=O)Nc3cccc(P(=O)(O)O)c3)cc2)cc1 | Active |
| CCCCCCCCOc1ccc(-c2ccc(C(=O)Nc3ccc(C(F)(F)C(F)(F)P(=O)(O)OCC)cc3)cc2)cc1 | Active |
| CCCCCCCCOc1ccc(-c2ccc(C(=O)Nc3ccc(CCP(=O)(OCC)OCC)cc3)cc2)cc1 | Active |
| CCCCCCCCOc1ccc(-c2ccc(C(=O)Nc3cccc(C(F)(F)C(F)(F)P(=O)(OCC)OCC)c3)cc2)cc1 | Active |
| CCCCCCCCOc1ccc(-c2ccc(C(=O)Nc3cccc(C(F)(F)P(=O)(OCC)OCC)c3)cc2)cc1 | Active |
| CCCCCCCCOc1ccc(-c2ccc(C(=O)Nc3ccccc3P(=O)(O)OCC)cc2)cc1 | Active |
| CCCCCCCCOc1ccc(-c2ccc(C(=O)Nc3cccc(CCP(=O)(O)O)c3)cc2)cc1 | Active |
| CCCCCCCCOc1ccc(-c2ccc(C(=O)Nc3ccccc3CP(=O)(O)O)cc2)cc1 | Active |
| CCCCCCCCOc1ccc(-c2ccc(C(=O)Nc3cccc(P(=O)(O)OCC)c3)cc2)cc1 | Active |
| CCCCCCCCOc1ccc(-c2ccc(C(=O)Nc3ccc(C(F)(F)CC(F)(F)P(=O)(OCC)OCC)cc3)cc2)cc1 | Active |

| SMILES | inhibition |
| --- | --- |
| CCCCCCCCOc1ccc(-c2ccc(C(=O)N(C)c3ccccc3C(F)(F)P(=O)(OCC)OCC)cc2)cc1 | Active |
| CCCCCCCCOc1ccc(-c2ccc(C(=O)Nc3cccc(P(=O)(OCC)OCC)c3)cc2)cc1 | Active |
| CCCCCCCCOc1ccc(-c2ccc(C(=O)Nc3ccccc3P(=O)(OCOC(=O)C(C)(C)C)OCOC(=O)C(C)(C)C)cc2)cc1 | Active |
| CCCCCCCCOc1ccc(-c2ccc(C(=O)Nc3ccc(C(F)(F)P(=O)(O)OCC)cc3)cc2)cc1 | Active |
| CCCCCCCCOc1ccc(-c2ccc(C(=O)Nc3ccc(C(F)(F)P(=O)(O)O)cc3)cc2)cc1 | Active |
| CCCCCCCCOc1ccc(-c2ccc(C(=O)N(C)c3ccc(C(F)(F)P(=O)(OCC)OCC)cc3)cc2)cc1 | Active |
| CCCCCCCCOc1ccc(-c2ccc(C(=O)Nc3ccccc3CCP(=O)(OCC)OCC)cc2)cc1 | Active |
| CCCCCCCCOc1ccc(-c2ccc(C(=O)N(C)c3cccc(C(F)(F)P(=O)(O)O)c3)cc2)cc1 | Active |
| CCCCCCCCOc1ccc(-c2ccc(C(=O)Nc3cccc(CCP(=O)(OCC)OCC)c3)cc2)cc1 | Active |
| CCCCCCCCOc1ccc(-c2ccc(C(=O)Nc3ccccc3CCP(=O)(O)O)cc2)cc1 | Active |
| CCCCCCCCOc1ccc(-c2ccc(C(=O)Nc3ccccc3C(F)(F)P(=O)(OC)OCC)cc2)cc1 (stereo not drawn) | Active |
| CCCCCCCCOc1ccc(-c2ccc(C(=O)Nc3cccc(N4CC(=O)NS4(=O)=O)c3)cc2)cc1 | Active |
| CCCCCCCCOc1ccc(-c2ccc(C(=O)Nc3ccc(C(F)(F)C(F)(F)P(=O)(OCC)OCC)cc3)cc2)cc1 | Active |
| CCCCCCCCCCOc1ccc(-c2ccc(C(=O)Nc3ccccc3CP(=O)(O)O)cc2)cc1 | Active |
| O=C(Nc1ccccc1CP(=O)(O)O)c1ccc(-c2ccc(O)cc2)cc1 | Active |
| CCCCCCCCOc1ccc(-c2ccc(C(=O)N(C)c3ccccc3C(F)(F)P(=O)(OC)OCC)cc2)cc1 (stereo not drawn) | Active |
| CCCCCCCCOc1ccc(-c2ccc(C(=O)Nc3ccccc3C(F)(F)P(=O)(O)OCC)cc2)cc1 | Active |
| CCCCCCCCOc1ccc(-c2ccc(C(=O)N(C)c3cccc(C(F)(F)P(=O)(OCC)OCC)c3)cc2)cc1 | Active |
| CCCCCCCCOc1ccc(-c2ccc(C(=O)Nc3cccc(C(F)(F)C(F)(F)P(=O)(O)O)c3)cc2)cc1 | Active |
| CCCCCCCCOc1ccc(-c2ccc(C(=O)Nc3ccc(C(F)(F)C(F)(F)P(=O)(O)O)cc3)cc2)cc1 | Active |
| CCCCCCCCOc1ccc(-c2ccc(C(=O)Nc3ccc(P(=O)(O)O)cc3)cc2)cc1 | Active |
